{"source": "patent US20240133870A1", "about": "“COMBINED TREATMENT FOR CANCER” (Yeda Research and Development Co. Ltd., priority 2021, published 2024)", "key": {"[1]": {"test_system": "SK-MEL-5 BRAF (V600E) melanoma cells", "assay": "Co-culture of stroma (WI-38 or HS-5) and cancer cells", "format": "cell-based, human", "conditions": "co-culture with WI-38; inhibitor added to vemurafenib", "method": "SK-MEL-5 BRAF (V600E) melanoma cells were co-cultured with the lung-derived stromal cell line WI-38 or with the bone marrow-derived stromal cell line HS-5 with or without vemurafenib (4 μM). […] Vehicle—DMSO, EGFRi—gefitinib (0.1 μM), EGFRi/HER2i—lapatinib (10 nM), METi—crizotinib (0.1 μM), FGFRi—AZD4547 (50 nM), NFkB/TNFRi—CAPE (10 μM), TGFBRi-LY2109761 (0.5 μM), gp130i—SC144 (1 nM). […] Error bars represent standard error. […] Error bars represent standard error. […] Human BRAF (V600E) melanoma cell lines UACC62 or G361 were used to generate xenograft tumor models in various tissues of nude mice. When tumors reached a volume of 500-700 μmm^3, they were resected, sliced, and cultured ex-vivo in the presence of different drug combinations or DMSO control. Following 4 days of drug treatment, slices were fixed, embedded in paraffin blocks, and subjected to immunohistochemistry, using anti-pERK antibody, or to immuno-fluorescence, using anti-pFGFR1 antibody. BRAFi (vemurafenib, 4 μM), FGFRi (AZD4547, 2 μM). Scale bar represents 50 μm.\nFour hours later, the melanoma BRAF (V600E) mutated cell line SK-MEL-5 was seeded on top of the stromal cells at a concentration of 1700 cells per well, or seeded without stroma. […] Concentrations of the inhibitors were based on dose curves with SK-MEL-5. For each inhibitor of potential mechanism of resistance, the maximal concentration with minimal effect (toxicity) on cell growth was selected (Cmax).\nTo compare rScore value of stroma-mediated resistance with or without a given inhibitor, the rScore values of each inhibitor in the presence of stroma, was calculated. As a reduction in rScore may stem from mere toxicity of the inhibitor, rather than the abrogation of the stroma mediated resistance, each inhibitor rScore was penalized by its toxicity.\nrScoreinhibitor=rScoreinhibitor+(rScorestroma−rScoreinhibitor)*tOxicitY(Cmax)inhibitor"}, "HCC4006 xenografts": {"test_system": "HCC4006 xenografts", "assay": "EVOC viability", "format": "cell-based, human", "conditions": "crizotinib 8 μM added to erlotinib 4 μM", "method": "Vehicle—DMSO, METi-crizotinib 8 μM, EGFRi—erlotinib 4 μM. Each black dot in a given treatment condition represents a different tumor. P-values were calculated by one-sided t-test. * P<0.05. Error bars represent standard error. […] Viability percentage is presented per treatment. Scale bar represents 50 μm.\nFreshly resected tumors were cut to 250 μm slices (Compresstome, VF-300) in cold Williams-E medium (Sigma, W1878). Slices were placed on the surface of titanium meshes which were pre-incubated in DMEM/F-12 (HAM) (01-170-1A, BI) supplemented with 10% FCS, 100 units/ml Penicillin and Streptomycin, 2 μmM Glutamine, […], and 2.5 μg/ml Amphotericin B (sigma, A2942), at 37° C. and 80% oxygen/5% CO2. […]\nImmunohistochemistry of EVOC tissues: To assess response therapy, 4 μm FFPE tissue slices were stained with H&E, or with specific antibodies: anti-pERK (Cell Signaling, #4370) followed by HRP conjugated secondary antibody (anti-Rabbit HRP, ZUC032, ZytoChem) and DAB staining (DAB substrate kit, DAB057, ZytoChem). […] All slides were scanned using the Pannoramic SCAN II (3[…]) and analyzed by a pathologist. The percentage of viable cancer cells was morphologically assessed on H&E stained sections by a pathologist as the ratio between viable cancer cell area and total cancer area (viable cancer cells plus necrotic cancer cells)."}, "human NSCLC tumor biopsy": {"test_system": "human NSCLC tumor biopsy", "assay": "EVOC of NSCLC patient biopsies, viability", "format": "cell-based", "conditions": "treatment-naïve patient; in combination with osimertinib 4 μM", "source_text": "Error bars represent standard error. […] Scale bar represents 50 μm. […] Error bars represent standard error. […] Scale bar represents 50 μm.\nScale bar represents 50 μm. […] Scale bar represents 50 μm. […] Scale bar represents 50 μm."}, "H1975 xenografts": {"test_system": "H1975 xenografts", "assay": "EVOC viability", "format": "cell-based, human", "conditions": "added to afatinib 3-4 μM", "procedure": "Vehicle—DMSO, FGFRi—AZD4547 2-4 μM, INSRi—linsitinib 2 μM, METi—crizotinib 2-4 μM, EGFRi—afatinib 3-4 μM. Each black dot in a given treatment condition represents a different tumor. P-values were calculated by two-sided t-test. ** P<0.01, * P<0.05. Error bars represent standard error. […] Viability percentage is given per treatment combination. Scale bar represents 50 μm. […] Error bars represent standard error. […] EGFRi—gefitinib 1.6 μM, FGFRi—AZD4547 0.2 μM. The percentage of viable cancer cells was morphologically assessed on H&E stained sections by a pathologist as the ratio between viable cancer cell area and total cancer area (viable cancer cells plus necrotic cancer cells). […] Viability score was calculated based on the entire field of view. […]\nImmunohistochemistry of EVOC tissues: To assess response therapy, 4 μm FFPE tissue slices were stained with H&E, or with specific antibodies: anti-pERK (Cell Signaling, #4370) followed by HRP conjugated secondary antibody (anti-Rabbit HRP, ZUC032, ZytoChem) and DAB staining (DAB substrate kit, DAB057, ZytoChem). […] All slides were scanned using the Pannoramic SCAN II (3[sequence]) and analyzed by a pathologist. The percentage of viable cancer cells was morphologically assessed on H&E stained sections by a pathologist as the ratio between viable cancer cell area and total cancer area (viable cancer cells plus necrotic cancer cells)."}, "G361 melanoma cells": {"test_system": "G361 melanoma cells", "assay": "FGFR inhibitor abrogation of factor-mediated resistance (GFP, rScore)", "format": "cell-based, human", "conditions": "vemurafenib 2 μM; EMAPII or AIMP1 10 ng/ml; FGFR inhibitor 0.5 μM", "method": "PLX4720—BRAFi, 2 μM; PD184352—MEKi, 1 μM, EMAPII—50 ng/ml. P-value of the difference between GFP(drug)/GFP(no-treatment) and GFP(drug+EMAPII)/GFP(no-treatment), at day 7, was calculated by two-sided t-test. ** p<0.01, *** p<0.001. Average rScore (+/−SE) was calculated from at least four different experiments. […] A total of 69 experiments are shown. […] The effect of FGF2 (10 ng/ml), EMAPII (10 ng/ml) or AIMP1 (10 ng/ml) on G361 μmelanoma cells treated with vemurafenib (2 μM) was measured with or without the FGFR inhibitor PD17307 (0.5 μM). Data represent an average of 4 to 8 experiments. P-value was calculated by two-sided t-test. *** p<0.001. Error bars represent standard error. […] 18 putative AIMP1 receptors were knocked down by shRNAs (on average 6.8 shRNAs/gene) in the G361 cell line. shRNAs toward luciferase served as a negative control. The effect of AIMP1 (50 ng/ml) on the sensitivity to PLX4720 (2 μM) was tested in all knockdown clones and normalized to no-shRNA control. Results represent the average of 3-8 experiments. Error bars represent standard error. P-values were calculated by two-sided t-test relative to luciferase. * p<0.05, Q-value=0.1. […] The average of 4 experiments is presented. Error bars represent standard error. P-value was calculated by two-sided t-test. *** p<0.001."}}}
{"compound": "C[C@@H](Oc1cc(-c2cnn(C3CCNCC3)c2)cnc1N)c1c(Cl)ccc(F)c1Cl", "note": "[crizotinib]", "values": [{"measurement": "abrogation of stroma-mediated resistance to vemurafenib", "setting": "[1]", "result": "abrogated the resistance effect of WI-38"}, {"measurement": "innate resistance to EGFRi", "setting": "HCC4006 xenografts", "result": "reduced innate resistance to the EGFRi erlotinib"}, {"measurement": "cancer cell viability", "setting": "human NSCLC tumor biopsy", "result": "synergistic killing effect"}, {"measurement": "cell viability", "setting": "H1975 xenografts", "result": "significantly reduced cell viability"}]}
{"compound": "CCN(CC)CCCCNc1ncc2cc(-c3cc(OC)cc(OC)c3)c(NC(=O)NC(C)(C)C)nc2n1", "note": "[PD17307]", "values": [{"measurement": "abrogation of EMAPII/AIMP1-mediated resistance", "setting": "G361 melanoma cells", "result": "abrogates EMAPII/AIMP1-mediated resistance"}]}
